Columns and labels:
CB2 receptors [1] = biological target: T1, CB2 receptors (Mus musculus, UniProt P47936); assay: NIR-mbc94 binding competition in intact BV-2 cells; details: read-out: Ki (competition for NIR-mbc94 binding)
CB2 receptors [2] = biological target: T1, CB2 receptors; assay type: binding; details: saturation, homogenates of CB2-mid DBT cells
CB2 receptor mRNA = assay: qPCR of CB2 receptor mRNA in primary microglia; assay type: cell-based, mouse; details: 72 hr
CB2 receptors [3] = details: ref Rinaldi-Carmona et al., 1998; cited from earlier work

T1 sequence (P47936 whole entry): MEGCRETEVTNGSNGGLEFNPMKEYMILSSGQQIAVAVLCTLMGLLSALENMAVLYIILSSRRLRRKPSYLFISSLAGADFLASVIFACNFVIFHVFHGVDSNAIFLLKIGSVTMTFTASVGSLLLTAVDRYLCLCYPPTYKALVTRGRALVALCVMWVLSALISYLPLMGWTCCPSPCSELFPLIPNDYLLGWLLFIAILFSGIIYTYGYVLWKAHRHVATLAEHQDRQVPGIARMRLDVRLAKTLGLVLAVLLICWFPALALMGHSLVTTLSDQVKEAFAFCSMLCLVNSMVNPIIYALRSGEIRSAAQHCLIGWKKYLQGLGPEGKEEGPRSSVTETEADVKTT

Cc1c(C(=O)c2cccc3ccccc23)c2cccc3c2n1[C@H](CN1CCOCC1)CO3 [WIN55212-2]
Ki (CB2 receptors [1]): 3 nM

CCCCCCC(C)(C)c1ccc([C@@H]2C[C@H](O)CC[C@H]2CCCO)c(O)c1 [[^3H]-CP-55,940]
Kd (CB2 receptors [2]; read-out: Kd of [3H]-CP-55,940): 3.1 nM | Bmax of [3H]-CP-55,940 (CB2 receptors [2]): 6 pmol/mg

IL-4: cytokine that promotes alternative activation phenotype in macrophages/microglia
increase of CB2 receptor mRNA (CB2 receptor mRNA): ~ 5 fold

SR144528
affinity at CB2 receptors (CB2 receptors [3]): nanomolar affinity

TGFβ
effect on CB2 receptor expression (mRNA) (CB2 receptor mRNA): did not affect
